ChEMBL document CHEMBL4828719, “H2dpa derivatives containing pentadentate ligands: An acyclic adjuvant potentiates meropenem activity in vitro and in vivo against metallo-β-lactamase-producing Enterobacterales” (Eur J Med Chem, 2021)
Converted amounts (≈) assume the structure as drawn. The source made the active and inactive calls. The rule behind the calls is not given here.

Assays:
[1] = Zinc chelation-dependent inhibition of NDM-1 (unknown origin) expressed in Escherichia coli BL21 (DE3) using meropenem as substrate preincubated with enzyme for 5 to 10 mins followed by substrate addition
[2] = Zinc chelation-dependent inhibition of VIM-2 (unknown origin) expressed in Escherichia coli BL21 (DE3) using nitrocefin as substrate preincubated with enzyme for 5 to 10 mins followed by substrate addition
[3] = Zinc chelation-dependent inhibition of IMP-4 (unknown origin) expressed in Escherichia coli BL21 (DE3) using imipenem as substrate preincubated with enzyme for 5 to 10 mins followed by substrate addition
Escherichia coli [4] = experiment: Synergistic antibacterial activity against VIM-1 producing Escherichia coli DH5alpha assessed as fractional inhibitory concentration index incubated for 16 to 20 hrs in presence of meropenem by checkerboard assay; format: functional, DH5[alpha]; conditions: time 16-20 hrs
Escherichia coli [5] = experiment: Synergistic antibacterial activity against NDM-1 producing Escherichia coli DH5alpha assessed as fractional inhibitory concentration index incubated for 16 to 20 hrs in presence of meropenem by checkerboard assay; format: functional, DH5[alpha]; conditions: time 16-20 hrs
Escherichia coli [6] = experiment: Antibiotic adjuvant activity against VIM-1 producing Escherichia coli DH5alpha assessed as potentiation of meropenem-induced antibacterial activity incubated for 16 to 20 hrs by agar disc diffusion assay; format: functional, organism-based; conditions: DH5[alpha], time 16-20 hrs
Escherichia coli [7] = experiment: Antibacterial activity against IMP-4 producing Escherichia coli DH5alpha assessed as decrease in bacterial growth incubated for 16 to 20 hrs by CLSI based microdilution method; format: functional; conditions: DH5[alpha], time 16-20 hrs
Escherichia coli [8] = experiment: Antibiotic adjuvant activity against NDM-1 producing Escherichia coli DH5alpha assessed as potentiation of meropenem-induced antibacterial activity incubated for 16 to 20 hrs by agar disc diffusion assay; format: functional, organism-based; conditions: DH5[alpha], time 16-20 hrs
Escherichia coli [9] = experiment: Antibacterial activity against VIM-1 producing Escherichia coli DH5alpha assessed as decrease in bacterial growth incubated for 16 to 20 hrs by CLSI based microdilution method; format: functional; conditions: DH5[alpha], time 16-20 hrs
Escherichia coli [10] = experiment: Antibacterial activity against NDM-1 producing Escherichia coli DH5alpha assessed as decrease in bacterial growth incubated for 16 to 20 hrs by CLSI based microdilution method; format: functional; conditions: DH5[alpha], time 16-20 hrs
Escherichia coli [11] = experiment: Antibiotic adjuvant activity against IMP-4 producing Escherichia coli DH5alpha assessed as potentiation of meropenem-induced antibacterial activity incubated for 16 to 20 hrs by agar disc diffusion assay; format: functional, organism-based; conditions: DH5[alpha], time 16-20 hrs
Escherichia coli [12] = experiment: Synergistic antibacterial activity against IMP-4 producing Escherichia coli DH5alpha assessed as fractional inhibitory concentration index incubated for 16 to 20 hrs in presence of meropenem by checkerboard assay; format: functional, DH5[alpha]; conditions: time 16-20 hrs
[13] = Zinc chelation-dependent inhibition of NDM-1 (unknown origin) expressed in Escherichia coli DH5 alpha using meropenem as substrate preincubated with enzyme for 5 mins followed by substrate addition in the presence of zinc sulfate
[14] = Zinc chelation-dependent inhibition of IMP-1 (unknown origin) expressed in Escherichia coli DH5 alpha using imipenem as substrate preincubated with enzyme for 5 mins followed by substrate addition in the presence of zinc sulfate
[15] = Zinc chelation-dependent inhibition of VIM-2 (unknown origin) expressed in Escherichia coli DH5 alpha using nitrocefin as substrate preincubated with enzyme for 5 mins followed by substrate addition in presence of zinc sulfate

| Structure (SMILES) | IC50 [1] [nM] | IC50 [2] [nM] | IC50 [3] [nM] | fractional inhibitory concentration index (FICI) (Escherichia coli [4]) | fractional inhibitory concentration index (FICI) (Escherichia coli [5]) | Activity (Escherichia coli [6]) | MIC (Escherichia coli [7]) [µg/mL] | Activity (Escherichia coli [8]) | MIC (Escherichia coli [9]) [µg/mL] | MIC (Escherichia coli [10]) [µg/mL] | Activity (Escherichia coli [11]) | fractional inhibitory concentration index (FICI) (Escherichia coli [12]) | Activity [13] | Activity [14] | Activity [15] |
| --- | --- | --- | --- | --- | --- | --- | --- | --- | --- | --- | --- | --- | --- | --- | --- |
| N[C@@H](CN[C@@H](CN[C@@H](CC(=O)O)C(=O)O)C(=O)O)C(=O)O | 4000 | > 200000 | 9600 |  |  |  |  |  |  |  |  |  |  |  |  |
| O=C(O)c1cccc(CN(CCP(=O)(O)O)Cc2cccc(C(=O)O)n2)n1 | 1650 | 2030 | 4840 | 0.07 | 0.07 | Active | 128 (≈ 324 µM) | Active | 128 (≈ 324 µM) | 128 (≈ 324 µM) | Active | 0.14 |  |  |  |
| C[C@H](CS)C(=O)N1CCC[C@H]1C(=O)O [CAPTOPRIL] |  |  |  |  |  |  |  |  |  |  |  |  | Active | Active | Active |
| O=C(O)c1cccc(CNCc2cccc(C(=O)O)n2)n1 | 1540 | 1050 | 1040 | 0.07 | 0.07 | Active | 128 (≈ 446 µM) | Active | 128 (≈ 446 µM) | 128 (≈ 446 µM) | Active | 0.14 |  |  |  |
| O=C(O)CN(Cc1cccc(C(=O)O)n1)Cc1cccc(C(=O)O)n1 | 1670 | 1530 | 3880 | 0.07 | 0.07 | Active | 128 (≈ 371 µM) | Active | 128 (≈ 371 µM) | 128 (≈ 371 µM) | Active | 0.14 |  |  |  |
| O=C(O)CN(CCN(CC(=O)O)CC(=O)O)CC(=O)O [EDETIC ACID] | 1750 | > 200000 | 12500 |  |  |  |  |  |  |  |  |  | inactive | inactive | inactive |
